Laboratory results: US20070032529A1, “Pyrazole compounds and their use as antidiabetes agents” (Japan Tobacco Inc., priority 2005, published 2007)

What follows are compounds tested against T1, recombinant human liver glycogen phosphorylase (Homo sapiens, UniProt P06737) (assay: Measuring liver glycogen phosphorylase activity (forward reaction system, NADPH absorbance at 340 nm)). Settings: compound concentration 100 nmol (in parentheses).
T1 construct: made in house; host or cells: Sf9 insect cells (crude homogenate, diluted, used as the enzyme solution)
T1 sequence (P06737 1-847): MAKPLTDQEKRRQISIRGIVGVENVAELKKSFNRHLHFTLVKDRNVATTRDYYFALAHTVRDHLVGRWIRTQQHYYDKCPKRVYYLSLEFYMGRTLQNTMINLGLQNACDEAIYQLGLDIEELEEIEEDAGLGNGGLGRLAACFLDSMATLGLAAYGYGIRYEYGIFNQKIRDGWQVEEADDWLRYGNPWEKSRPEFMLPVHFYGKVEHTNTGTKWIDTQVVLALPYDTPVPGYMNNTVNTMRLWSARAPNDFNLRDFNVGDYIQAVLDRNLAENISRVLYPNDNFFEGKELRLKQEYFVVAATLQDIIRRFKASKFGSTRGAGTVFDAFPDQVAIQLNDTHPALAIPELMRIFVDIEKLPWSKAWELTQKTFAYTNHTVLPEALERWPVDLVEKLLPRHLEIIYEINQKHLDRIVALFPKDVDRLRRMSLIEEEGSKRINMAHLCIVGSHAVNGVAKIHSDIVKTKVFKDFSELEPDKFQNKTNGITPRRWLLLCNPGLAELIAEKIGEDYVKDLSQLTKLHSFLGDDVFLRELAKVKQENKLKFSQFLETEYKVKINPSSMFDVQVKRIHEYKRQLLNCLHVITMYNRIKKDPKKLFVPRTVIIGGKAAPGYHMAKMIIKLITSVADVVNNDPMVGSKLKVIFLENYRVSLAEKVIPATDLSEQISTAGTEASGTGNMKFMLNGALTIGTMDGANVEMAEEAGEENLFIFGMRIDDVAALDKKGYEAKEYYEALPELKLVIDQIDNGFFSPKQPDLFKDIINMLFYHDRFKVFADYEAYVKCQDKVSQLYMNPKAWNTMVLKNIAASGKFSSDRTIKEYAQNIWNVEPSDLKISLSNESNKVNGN
Assay type: biochemical
Procedure, shortened: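 Compounds in 1% DMSO; activity taken as blank-subtracted 340 nm absorbance change across 75 min at room temperature. Forward reaction: glucose-1-phosphate released from glycogen converted by coupling enzymes, yielding NADPH; enzyme from recombinant Sf9 homogenate, reaction containing glucose, pH 6.8. IC50 from two-point linear interpolation.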

Q: How did the “inhibition rate (%) at a certain concentration” value (“inhibition rate (%)” below) turn out when O=C(Nc1cccc2ncccc12)c1cc(NC(=O)c2cc(F)c(F)cc2Cl)[nH]n1 [Example 5-36] was run?
A: 17.8% (100)

Q: For O=C(Nc1cccc2cccnc12)c1cc(NC(=O)c2cc(F)c(F)cc2Cl)[nH]n1 [Example 5-37], which “inhibition rate (%)” value is on record?
A: 22.3% (100)

Q: With O=C(Nc1cccc2cnccc12)c1cc(NC(=O)c2cc(F)c(F)cc2Cl)[nH]n1 [Example 5-38] as the compound, how does the “inhibition rate (%)” value read?
A: 15.2% (100)

Same assay, conditions: enzyme inhibitory activity with respect to liver glycogen phosphorylase; class symbols

Q: For O=C(NN1CCOCC1)c1ccc(CNC(=O)c2cc(NC(=O)c3cc(F)c(F)cc3Cl)[nH]n2)cc1 [Example 5-5], which IC50 is on record?
A: < 100 nM

Q: O=C(O)CNC(=O)c1ccc(CNC(=O)c2cc(NC(=O)c3cc(F)c(F)cc3Cl)[nH]n2)cc1 [Example 5-6] was tested. Which IC50 did it give?
A: < 100 nM

Q: How did the IC50 turn out when O=C(O)CCNC(=O)c1ccc(CNC(=O)c2cc(NC(=O)c3cc(F)c(F)cc3Cl)[nH]n2)cc1 [Example 5-7] was run?
A: < 100 nM

Q: Which IC50 does the source give for O=C(NCCN1CCOCC1)c1cccc(CNC(=O)c2cc(NC(=O)c3cc(F)c(F)cc3Cl)[nH]n2)c1 [Example 5-11] here?
A: < 100 nM

Q: Which IC50 does the source give for NCc1ccnc(CNC(=O)c2cc(NC(=O)c3cc(F)c(F)cc3Cl)[nH]n2)c1 [Example 5-18] here?
A: < 100 nM

Q: CN1CCN(c2ccc(CNC(=O)c3cc(NC(=O)c4cc(F)c(F)cc4Cl)[nH]n3)cn2)CC1 [Example 5-39] was tested. Which IC50 did it give?
A: < 100 nM

Q: Which IC50 does the source give for CN(C)C1CCN(c2ccc(CNC(=O)c3cc(NC(=O)c4cc(F)c(F)cc4Cl)[nH]n3)cn2)CC1 [Example 5-40] here?
A: < 100 nM

Same assay, conditions: figure in brackets (100); read-out: IC50: % value given with (100)

Q: NC(=O)CNC(=O)c1cc(NC(=O)c2cc(F)c(F)cc2Cl)[nH]n1 [Example 6-1] was tested. Which inhibition at 0.1 µM did it give?
A: 15.5%

Q: Which inhibition at 0.1 µM does the source give for CN(C(=O)c1cc(NC(=O)c2cc(F)c(F)cc2Cl)[nH]n1)c1ccc(C(=N)NO)cc1 [Example 6-11] here?
A: 2.1%

Q: CN(C(=O)c1cc(NC(=O)c2cc(F)c(F)cc2Cl)[nH]n1)c1ccc(C(=O)OCOC(=O)C(C)(C)C)cc1 [Example 6-13] was tested. Which inhibition at 0.1 µM did it give?
A: 17.5%

Q: COC(=S)ON=C(N)c1ccc(N(C)C(=O)c2cc(NC(=O)c3cc(F)c(F)cc3Cl)[nH]n2)cc1 [Example 6-14] was tested. Which inhibition at 0.1 µM did it give?
A: 20.1%

Q: CCOC(=O)c1csc(N(CC)C(=O)c2cc(NC(=O)c3cc(F)c(F)cc3Cl)[nH]n2)n1 [Example 6-18] was tested. Which inhibition at 0.1 µM did it give?
A: 6.8%

Same assay, conditions: figure in brackets (300); read-out: IC50 column: % value printed with (300)

Q: Which inhibition at 0.3 µM does the source give for CN(C(=O)c1cc(NC(=O)c2cc(F)c(Cl)cc2Cl)[nH]n1)c1ccc(C(N)=O)cc1 [Example 6-2] here?
A: 12.3%

Q: With CNC(=O)c1ccc(N(C)C(=O)c2cc(NC(=O)c3cc(F)c(Cl)cc3Cl)[nH]n2)cc1 [Example 6-3] as the compound, how does the inhibition at 0.3 µM read?
A: 9.7%

Q: How did the inhibition at 0.3 µM turn out when CN(C)C(=O)c1ccc(N(C)C(=O)c2cc(NC(=O)c3cc(F)c(Cl)cc3Cl)[nH]n2)cc1 [Example 6-4] was run?
A: 46.8%

Q: How did the inhibition at 0.3 µM turn out when CN(C(=O)c1cc(NC(=O)c2cc(F)c(F)cc2Cl)[nH]n1)c1ccc(C#N)cc1 [Example 6-7] was run?
A: 12.9%

Q: For CN(C(=O)c1cc(NC(=O)c2cc(F)c(F)cc2Cl)[nH]n1)c1ccc(-c2nnc[nH]2)cc1 [Example 6-8], which inhibition at 0.3 µM is on record?
A: 11.7%

Q: With CN(C(=O)c1cc(NC(=O)c2cc(F)c(N=[N+]=[N-])cc2Cl)[nH]n1)c1ccc(C#N)cc1 [Example 6-9] as the compound, how does the inhibition at 0.3 µM read?
A: 5.5%

Same assay, conditions: human liver glycogen phosphorylase; class symbol

Q: For CN(C(=O)c1cc(NC(=O)c2cc(F)c(F)cc2Cl)[nH]n1)c1ccc(C(=O)NS(C)(=O)=O)cc1 [Example 6-5], which IC50 is on record?
A: < 100 nM

Q: CN(C(=O)c1cc(NC(=O)c2cc(F)c(N=[N+]=[N-])cc2Cl)[nH]n1)c1ccc(-c2nnn[nH]2)cc1 [Example 6-10] was tested. Which IC50 did it give?
A: 100 to 300 nM

Q: Which IC50 does the source give for CN(C(=O)c1cc(NC(=O)c2cc(F)c(F)cc2Cl)[nH]n1)c1ccc(-c2noc(=S)[nH]2)cc1 [Example 6-15] here?
A: < 100 nM

Q: For CS(=O)(=O)Nc1ccccc1CNC(=O)c1cc(NC(=O)c2cc(F)c(F)cc2Cl)[nH]n1 [Example 6-19], which IC50 is on record?
A: < 100 nM

Q: Which IC50 does the source give for CC(=O)Nc1ccccc1CNC(=O)c1cc(NC(=O)c2cc(F)c(F)cc2Cl)[nH]n1 [Example 6-20] here?
A: < 100 nM

Q: How did the IC50 turn out when CC(=Nc1ccccc1CNC(=O)c1cc(NC(=O)c2cc(F)c(F)cc2Cl)[nH]n1)N(C)C [Example 6-24] was run?
A: < 100 nM

Q: For CC(=Nc1cccc(CNC(=O)c2cc(NC(=O)c3cc(F)c(F)cc3Cl)[nH]n2)c1)N(C)C [Example 6-25], which IC50 is on record?
A: < 100 nM
